Assay [1] concerns the target Apoptosis regulator Bcl-2 (Homo sapiens, UniProt P10415). The assay is described as follows: Inhibition of N-terminal FAM-labeled Bid-BH3 peptide binding to Bcl2 (unknown origin) preincubated for 30 mins followed by N-terminal FAM-labeled Bid-BH3 peptide addition measured after 20 mins by fluorescence polarization assay. A general note: Fluorescence polarisation rises when a labelled molecule tumbles more slowly, as on binding a larger partner.

Another assay has as its system K562. The assay is described as follows: Antiproliferative activity against human K562 cells after 48 hrs by MTT assay. It counts as functional, cell-based. The note with it: K562, 48 h. In general terms: Tetrazolium dyes change colour on reduction, which living cells bring about.
For assay [2], the target named is Induced myeloid leukemia cell differentiation protein Mcl-1 (Homo sapiens, UniProt Q07820). As to the kind of experiment: Inhibition of N-terminal FAM-labeled Bid-BH3 peptide binding to MCL1 (unknown origin) preincubated for 30 mins followed by N-terminal FAM-labeled Bid-BH3 peptide addition measured after 20 mins by fluorescence polarization assay.
A further assay relates to PC-3. As to the kind of experiment: Antiproliferative activity against human PC3 cells after 48 hrs by MTT assay. It counts as functional, cell-based. Particulars: PC-3, 48 h.
The subject of a further assay is MDA-MB-231. The assay is described as follows: Antiproliferative activity against human MDA-MB-231 cells after 48 hrs by MTT assay. Type of assay: functional, cell-based. Particulars: MDA-MB-231, 48 h.
Another assay deals with Bcl-2-like protein 1 (Homo sapiens, UniProt Q07817). The assay is described as follows: Inhibition of N-terminal FAM-labeled Bid-BH3 peptide binding to Bcl-XL (unknown origin) preincubated for 30 mins followed by N-terminal FAM-labeled Bid-BH3 peptide addition measured after 20 mins by fluorescence polarization assay.

SMILES strings stand for the structures.

Chain of Induced myeloid leukemia cell differentiation protein Mcl-1 (Q07820 whole entry): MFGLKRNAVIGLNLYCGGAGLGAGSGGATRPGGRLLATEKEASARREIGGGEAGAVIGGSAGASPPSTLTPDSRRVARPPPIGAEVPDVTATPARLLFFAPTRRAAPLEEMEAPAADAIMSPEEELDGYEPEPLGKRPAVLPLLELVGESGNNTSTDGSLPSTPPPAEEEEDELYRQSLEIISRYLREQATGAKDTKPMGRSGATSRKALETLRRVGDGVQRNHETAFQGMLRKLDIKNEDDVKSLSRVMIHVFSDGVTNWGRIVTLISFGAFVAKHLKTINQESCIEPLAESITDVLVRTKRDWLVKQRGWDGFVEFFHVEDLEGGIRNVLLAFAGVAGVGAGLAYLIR
Chain of Apoptosis regulator Bcl-2 (P10415 whole entry): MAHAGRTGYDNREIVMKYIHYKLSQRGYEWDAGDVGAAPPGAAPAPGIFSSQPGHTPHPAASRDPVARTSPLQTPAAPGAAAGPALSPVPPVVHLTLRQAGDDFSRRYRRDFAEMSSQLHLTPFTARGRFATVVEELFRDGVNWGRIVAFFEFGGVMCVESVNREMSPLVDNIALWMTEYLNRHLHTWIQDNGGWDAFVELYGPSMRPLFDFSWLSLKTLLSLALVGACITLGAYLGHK
Chain of Bcl-2-like protein 1 (Q07817 whole entry): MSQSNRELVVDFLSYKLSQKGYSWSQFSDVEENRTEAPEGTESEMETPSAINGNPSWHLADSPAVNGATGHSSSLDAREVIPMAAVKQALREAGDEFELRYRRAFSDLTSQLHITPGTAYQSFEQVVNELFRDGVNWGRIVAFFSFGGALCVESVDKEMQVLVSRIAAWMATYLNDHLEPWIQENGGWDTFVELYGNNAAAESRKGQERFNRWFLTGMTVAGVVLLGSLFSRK

As usually defined, the Ki is the equilibrium dissociation constant of an inhibitor or competing ligand from its target. A low value points to tighter binding. `O=C(N[C@@H](Cc1ccc(OCc2ccc([N+](=O)[O-])cc2)cc1)C(=O)NS(=O)(=O)c1ccc(Cl)c([N+](=O)[O-])c1)c1cn(Cc2ccc(-c3ccccc3)cc2)c2ccccc12`: in assay [1], the inhibition constant Ki is > 10 µM.
Turning to `O=C(N[C@@H](Cc1ccc(Br)cc1)C(=O)NS(=O)(=O)c1ccc(Cl)c([N+](=O)[O-])c1)c1cn(Cc2ccc(-c3ccccc3)cc2)c2ccccc12`, the inhibitory constant (Ki) in assay [1] was > 10 µM.
For `CCCOc1ccc(C[C@H](NC(=O)c2cn(Cc3ccc(-c4ccc(Cl)cc4)cc3)c3ccccc23)C(=O)NS(=O)(=O)c2ccc(Cl)c([N+](=O)[O-])c2)cc1`, the inhibitory constant (Ki) in assay [1] was > 10 µM.
As a reminder, the IC50 is the midpoint of a concentration-inhibition curve. A higher IC50 goes with a need for much substance. On to `COc1ccc(-c2ccc(Cn3cc(C(=O)N[C@@H](Cc4c[nH]c5ccccc45)C(=O)NS(=O)(=O)c4ccc(C)cc4)c4ccccc43)cc2)cc1`, for which the IC50 was 10.1 µM with K562, 18.3 µM with PC-3 and 11.5 µM with MDA-MB-231. Moreover, the inhibition constant Ki in assay [2] was determined as 0.53 µM; in assay [1] it was 0.75 µM.
For the molecule `COc1ccc(-c2ccc(Cn3cc(C(=O)N[C@@H](Cc4ccc(OCc5ccccc5)cc4)C(=O)NS(=O)(=O)c4ccc(Cl)c([N+](=O)[O-])c4)c4ccccc43)cc2)cc1`, the inhibition constant (Ki) in assay [1] was > 10 µM.
In turn, `O=C(N[C@@H](Cc1ccc(Br)cc1)C(=O)NS(=O)(=O)c1ccccc1)c1cn(Cc2ccc(-c3ccc(Cl)cc3)cc2)c2ccccc12` gave an inhibitory constant (Ki) in assay [1] of 0.91 µM.
Turning to `COc1ccc(-c2ccc(Cn3cc(C(=O)N[C@@H](Cc4ccccc4)C(=O)NS(=O)(=O)c4ccc(Cl)c([N+](=O)[O-])c4)c4ccccc43)cc2)cc1`, the inhibition constant Ki in assay [1] is > 10 µM.
Still for that read-out and setting: for `COc1ccc(-c2ccc(Cn3cc(C(=O)N[C@@H](Cc4ccc(OCc5ccc([N+](=O)[O-])cc5)cc4)C(=O)NS(=O)(=O)c4ccc(Cl)c([N+](=O)[O-])c4)c4ccccc43)cc2)cc1` the value was > 10 µM; for `COc1ccc(-c2ccc(Cn3cc(C(=O)N[C@@H](Cc4ccccc4)C(=O)O)c4ccccc43)cc2)cc1`, > 10 µM.
`O=C(N[C@@H](Cc1ccccc1)C(=O)NS(=O)(=O)c1ccccc1)c1cn(Cc2ccc(-c3ccc(Cl)cc3)cc2)c2ccccc12`: the IC50 with K562 was 32.4 µM; in the assay with PC-3, 23.6 µM; in the assay with MDA-MB-231, 29.6 µM. Besides, the inhibitory constant (Ki) at Bcl-2-like protein 1 came to 2.1 µM; in assay [2], 0.49 µM; in assay [1] it was 0.74 µM.
In assay [1], `COc1ccc(-c2ccc(Cn3cc(C(=O)N[C@@H](Cc4ccccc4)C(=O)NS(=O)(=O)c4ccccc4)c4ccccc43)cc2)cc1` registered a Ki of 1.3 µM.
For `O=C(N[C@@H](Cc1ccccc1)C(=O)NS(=O)(=O)c1ccc(Cl)c([N+](=O)[O-])c1)c1cn(Cc2ccc(-c3ccc(Cl)cc3)cc2)c2ccccc12`, the 50% inhibitory concentration (IC50) in the assay with K562 was found to be 19.7 µM; in the assay on PC-3, 28.8 µM; with MDA-MB-231, 29.5 µM. The figures for the Ki (on Bcl-2-like protein 1; in assay [2]; in assay [1]) were 0.71 µM, 0.072 µM and 0.26 µM, respectively.
On to `CCCOc1ccc(C[C@H](NC(=O)c2cn(Cc3ccc(-c4ccc(OC)cc4)cc3)c3ccccc23)C(=O)NS(=O)(=O)c2ccc(Cl)c([N+](=O)[O-])c2)cc1`, for which, in assay [1], the Ki was > 10 µM.
With `Cc1cc2c(C(C)C)c(O)c(O)c(C=O)c2c(O)c1-c1c(C)cc2c(C(C)C)c(O)c(O)c(C=O)c2c1O` [GOSSYPOL], the IC50 stood at 8.28 µM with K562, 8.58 µM with PC-3 and 8.54 µM with MDA-MB-231.
On to `COc1ccc(-c2ccc(Cn3cc(C(=O)N[C@@H](Cc4c[nH]c5ccccc45)C(=O)NS(=O)(=O)c4ccc(Cl)c([N+](=O)[O-])c4)c4ccccc43)cc2)cc1`, for which, in assay [1], the Ki is > 10 µM.
`O=C(N[C@@H](Cc1ccccc1)C(=O)NS(=O)(=O)c1ccc(Cl)c([N+](=O)[O-])c1)c1cn(Cc2ccc(-c3ccccc3)cc2)c2ccccc12` gave a Ki in assay [1] of 2.6 µM.
For `Cc1ccc(S(=O)(=O)NC(=O)[C@H](Cc2ccccc2)N2C(=O)/C(=C/c3ccc(-c4ccccc4)cc3)SC2=S)cc1`, the values for the Ki (at Bcl-2-like protein 1; in assay [2]; in assay [1]) were 0.81 µM, 0.44 µM and 0.76 µM, respectively.
On to `O=C(N[C@@H](Cc1ccc(Br)cc1)C(=O)NS(=O)(=O)c1ccc(Cl)c([N+](=O)[O-])c1)c1cn(Cc2ccc(-c3ccc(Cl)cc3)cc2)c2ccccc12`, for which, in assay [1], the inhibitory constant (Ki) is > 10 µM.
The same measure, in the same setting: then `CCCOc1ccc(C[C@H](NC(=O)c2cn(Cc3ccc(-c4ccccc4)cc3)c3ccccc23)C(=O)NS(=O)(=O)c2ccc(Cl)c([N+](=O)[O-])c2)cc1`, with 5.6 µM; and `O=C(N[C@@H](Cc1ccc(OCc2ccccc2)cc1)C(=O)NS(=O)(=O)c1ccc(Cl)c([N+](=O)[O-])c1)c1cn(Cc2ccc(-c3ccccc3)cc2)c2ccccc12`, with > 10 µM.
Turning to `O=C(N[C@@H](Cc1ccc(OCc2ccc([N+](=O)[O-])cc2)cc1)C(=O)NS(=O)(=O)c1ccc(Cl)c([N+](=O)[O-])c1)c1cn(Cc2ccc(-c3ccc(Cl)cc3)cc2)c2ccccc12`, the Ki in assay [1] was > 10 µM.
For the molecule `CC(C)C[C@H](NC(=O)c1cn(Cc2ccc(-c3ccc(Cl)cc3)cc2)c2ccccc12)C(=O)NS(=O)(=O)c1ccccc1`, the Ki at Bcl-2-like protein 1 amounted to 6.2 µM; in assay [2], 0.6 µM; in assay [1], 0.92 µM.
In the case of `O=C(N[C@@H](Cc1ccc(OCc2ccccc2)cc1)C(=O)NS(=O)(=O)c1ccc(Cl)c([N+](=O)[O-])c1)c1cn(Cc2ccc(-c3ccc(Cl)cc3)cc2)c2ccccc12`, the Ki in assay [1] was > 10 µM.
In the case of `CCCOc1ccc(C[C@H](NC(=O)c2cn(Cc3ccc(-c4ccc(Cl)cc4)cc3)c3ccccc23)C(=O)NS(=O)(=O)c2ccc([N+](=O)[O-])cc2)cc1`, the Ki in assay [1] was > 10 µM.
With `O=C(N[C@@H](Cc1ccccc1)C(=O)NS(=O)(=O)c1ccccc1)c1cn(Cc2ccc(-c3ccccc3)cc2)c2ccccc12`, in assay [1], the inhibitory constant (Ki) was > 10 µM.
Still for that read-out and setting: for `COc1ccc(-c2ccc(Cn3cc(C(=O)N[C@@H](Cc4ccc(Br)cc4)C(=O)NS(=O)(=O)c4ccc(Cl)c([N+](=O)[O-])c4)c4ccccc43)cc2)cc1` the value was > 10 µM.
As to `Cc1ccc(-c2ccc(Cn3cc(C(=O)N[C@@H](Cc4ccc(OCc5ccccc5)cc4)C(=O)NS(=O)(=O)c4ccc(Cl)c([N+](=O)[O-])c4)c4ccccc43)cc2)cc1`, the inhibition constant Ki in assay [1] was > 10 µM.

The values above are taken from ChEMBL document CHEMBL3992555, “Design, synthesis and preliminary biological evaluation of indole-3-carboxylic acid-based skeleton of Bcl-2/Mcl-1 dual inhibitors” (Bioorg Med Chem, 2017).
